A word on the IC50: it is the midpoint of a concentration-inhibition curve. A lower IC50 goes with greater potency in that assay.

Structures are written as SMILES. Some results are limits rather than exact numbers.

The test system of one data set is A549. Nature of the data set: Antiproliferative activity against human A549 cells incubated for 48 hrs by MTT assay. Particulars: A549, 48 h. The format is functional, cell-based.
For data set [1], the system named is HeLa. Description: Antiproliferative activity against human HeLa cells incubated for 48 hrs by MTT assay. The format is functional, cell-based.
In data set [2] the test system is HeLa. Nature of the data set: Effect on total c-Met protein level in human HeLa cells at 1.25 to 20 uM incubated for 24 hrs by Western blot method. The format is cell-based.

Consider `Cn1cc(-c2cnc3ccc(NCc4ccc(F)cc4)nc3c2)cn1`, for which the IC50 in the data set with A549 is greater than 50 µM; in the data set with HeLa [1] it was 46.6 µM.

Consider `Cn1cc(-c2cnc3ccnc(NCc4ccc(F)cc4)c3c2)cn1`, for which the results for the IC50 with A549 and in the data set on HeLa [1] were 5.2 µM and 9.2 µM, respectively. Also, the Activity entry with HeLa [2] was “Non-toxic”.

`Cc1ccc(S(=O)(=O)Nc2ccc3ncc(-c4cnn(C)c4)cc3n2)cc1`: the IC50 is 45.5 µM with A549 and greater than 50 µM with HeLa [1].

Take `Cn1cc(-c2cnc3ccc(NC(=O)c4cccnc4)nc3c2)cn1`: the IC50 in the data set on A549 and in the data set on HeLa [1] was greater than 50 µM each time.

In the case of `Cn1cc(-c2cnc3ccnc(NS(=O)(=O)c4c(Cl)cccc4Cl)c3c2)cn1`, the IC50 with A549 and with HeLa [1] was greater than 50 µM throughout.

For the compound `Cn1cc(-c2cnc3ccc(NS(=O)(=O)c4ccc(C(F)(F)F)cc4)nc3c2)cn1`, the IC50 in the data set on A549 and in the data set with HeLa [1] was greater than 50 µM throughout.

Turning to `Cn1cc(-c2cnc3ccnc(NC(=O)c4ccc(F)cc4)c3c2)cn1`, the IC50 with A549 and in the data set on HeLa [1] was greater than 50 µM in each case.

With `Cn1cc(-c2cnc3ccnc(NS(=O)(=O)c4ccc(C(F)(F)F)cc4)c3c2)cn1`, the IC50 with A549 and with HeLa [1] was greater than 50 µM in each case.

With `COc1ccc(C(=O)Nc2nccc3ncc(-c4cnn(C)c4)cc23)cc1`, the half-maximal inhibitory concentration (IC50) in the data set with A549 and in the data set with HeLa [1] was greater than 50 µM in each case.

In the case of `Cc1ccc(S(=O)(=O)Nc2nccc3ncc(-c4cnn(C)c4)cc23)cc1`, the IC50 in the data set with A549 and in the data set with HeLa [1] was greater than 50 µM in each case.

With `Cn1cc(-c2cnc3ccnc(NC(=O)c4cccnc4)c3c2)cn1`, the IC50 with A549 and in the data set with HeLa [1] was greater than 50 µM throughout.

Take `Cn1cc(-c2cnc3ccnc(NS(=O)(=O)c4cccs4)c3c2)cn1`: the IC50 came to 9.4 µM in the data set on A549 and 17.4 µM with HeLa [1].

Regarding `CCNc1ccc2ncc(-c3cnn(C)c3)cc2n1`, the IC50 in the data set on A549 and with HeLa [1] was greater than 50 µM throughout.

As to `Cn1cc(-c2cnc3ccc(NS(=O)(=O)c4ccc(Cl)cc4Cl)nc3c2)cn1`, the IC50 with A549 and in the data set with HeLa [1] was greater than 50 µM throughout.

As to `Cn1cc(-c2cnc3ccc(NCC4CC4)nc3c2)cn1`, the IC50 in the data set on A549 and in the data set on HeLa [1] was greater than 50 µM throughout.

As to `Cn1cc(-c2cnc3ccnc(N)c3c2)cn1`, the IC50 was determined as 33.4 µM with A549 and 40.8 µM in the data set on HeLa [1].

In the case of `CCNc1nccc2ncc(-c3cnn(C)c3)cc12`, the figures for the half-maximal inhibitory concentration (IC50) in the data set on A549 and in the data set on HeLa [1] were 40.7 µM and greater than 50 µM, respectively.

Regarding `COc1ccc(CNc2ccc3ncc(-c4cnn(C)c4)cc3n2)cc1`, the IC50 with A549 and in the data set on HeLa [1] was greater than 50 µM in each case.

As to `Cn1cc(-c2cnc3ccnc(NCC4CC4)c3c2)cn1`, the IC50 with A549 worked out at 8.9 µM; with HeLa [1], 7.4 µM.

For `COc1ccc(CNc2nccc3ncc(-c4cnn(C)c4)cc23)cc1`, the IC50 in the data set with A549 is greater than 50 µM; in the data set with HeLa [1], 42.2 µM.

As to `CC(=O)Nc1ccc2ncc(-c3cnn(C)c3)cc2n1`, the IC50 with A549 and in the data set with HeLa [1] was greater than 50 µM each time.

As to `COc1ccc(C(=O)Nc2ccc3ncc(-c4cnn(C)c4)cc3n2)cc1`, the results for the 50% inhibitory concentration (IC50) in the data set with A549 and in the data set on HeLa [1] were 6.4 µM and 4.9 µM, respectively.

Consider `CC(=O)Nc1nccc2ncc(-c3cnn(C)c3)cc12`, for which the IC50 in the data set with A549 and in the data set with HeLa [1] was greater than 50 µM in each case.

On to `Cn1cc(-c2cnc3ccc(NC(=O)C4CC4)nc3c2)cn1`, for which the IC50 in the data set on A549 and in the data set on HeLa [1] was greater than 50 µM in each case.

In the case of `Cn1cc(-c2cnc3ccc(NS(=O)(=O)c4cccs4)nc3c2)cn1`, the IC50 with A549 was determined as 39.5 µM; in the data set on HeLa [1] it was 38.4 µM.

For `Cn1cc(-c2cnc3ccc(N)nc3c2)cn1`, the IC50 with A549 and with HeLa [1] was greater than 50 µM in each case.

Take `Cn1cc(-c2cnc3ccc(NC(=O)c4ccc(F)cc4)nc3c2)cn1`: the IC50 in the data set on A549 and with HeLa [1] was greater than 50 µM throughout.

With `Cn1cc(-c2cnc3ccnc(NC(=O)C4CC4)c3c2)cn1`, the IC50 in the data set on A549 and with HeLa [1] was greater than 50 µM throughout.

(Values after ChEMBL document CHEMBL3600358, “Design and synthesis of novel substituted naphthyridines as potential c-Met kinase inhibitors based on MK-2461” (Bioorg Med Chem Lett, 2015).)
